The nature of one data set: Acute toxicity test. The note with it: dose up to about 16 g per kg mouse (maximum challenged), intraperitoneal or oral, observed for a week.
A short description of data set [1]: Clinical test in volunteers with chronic fatigue syndrome or slight depression. Format: in vivo, human. The note with it: experiment conducted similarly with vitamin P.
Description: A medical technologist conducted the clinical experiment and 24 hours after the final administration asked the therapeutic effect and the side effects of the volunteers, and also asked the therapeutic effect and side effects of the volunteers on the basis of the relief of feeling of fatigue, malaise, loss of appetite, and insomnia, which were accompanied by the diseases. The therapeutic effect was evaluated based on four ranks; "very effective", "effective", "unchanged",and "worsened". The effectivity was expressed by a percentage of the number of volunteers, who answered "very effective" and "effective", to the total number of volunteers.

Description for Acute toxicity test: An adequate amount of "TREHAOSE®" , a crystalline trehalose powder commercialized by Hayashibara Shoji, Inc., Okayama, Japan, was dissolved in physiological saline containing 5 w/w % gum arabic, and the solution was sterilized in usual manner and intraperitoneally injected to ddy-mice, 20-25 g weight, in a group of 10 mice, or orally administered to the mice by using a stomach sonde. […] In parallel similar experiments were conducted using as glycosyl vitamin P "αG HESPERIDIN PA" with a total hesperidin content of 74-78%, d.s.b., a glycosyl hesperidin power commercialized by Hayashibara Shoji, Inc., Okayama, Japan, and "αG RUTIN PS" with a total rutin content of 80-82%, d.s.b., a glycosyl rutin powder commercialized by Hayashibara Shoji, Inc., Okayama, Japan.

`OC[C@H]1O[C@H](O[C@H]2O[C@H](CO)[C@@H](O)[C@H](O)[C@H]2O)[C@H](O)[C@@H](O)[C@@H]1O` [TREHAOSE®, α,α-trehalose]: the Mortality result in the data set “Acute toxicity test” was “no mouse died”.

With vitamin P, the “Effect as compared with control (in words)” value in data set [1] was “no significant effect was found as compared with control”.

The record behind these values is patent US6232294A, “Neuro-function regulatory agent” (Kabushiki Kaisha Hayashibara Seibutsu Kagaku Kenkyujo, priority 1997, dated 2001).
